Experimental data taken from US9828381B2, “Substituted pyrazolopyrimidines and method of use” (AbbVie Deutschland GmbH & Co. KG, priority 2015, dated 2017).

biological target: GABA-B receptor (Rattus norvegicus (Rat), UniProt O88871+Q9Z0U4); assay: [35S]GTPgS binding assay, rat cortical membranes, in presence of EC25 GABA; assay type: biochemical; settings: rat brain cortex membranes; in presence of 1 μM GABA (EC25); positive allosteric modulation
In short: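 Rat cortical membranes (10 µg) in Tris-HCl pH 7.7 with Mg2+, Ca2+, NaCl, EGTA and 20 µM GDP, plus 0.3 nM [35S]GTPγS and 1 µM GABA (EC25), were incubated with compound (10 nM–10 µM) 60 min at room temperature. Filter-bound counts were normalised basal 0%, 1 mM GABA 100%; EC50 from sigmoidal fit.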

GABA-B receptor, sequence (Q9Z0U4 17-960): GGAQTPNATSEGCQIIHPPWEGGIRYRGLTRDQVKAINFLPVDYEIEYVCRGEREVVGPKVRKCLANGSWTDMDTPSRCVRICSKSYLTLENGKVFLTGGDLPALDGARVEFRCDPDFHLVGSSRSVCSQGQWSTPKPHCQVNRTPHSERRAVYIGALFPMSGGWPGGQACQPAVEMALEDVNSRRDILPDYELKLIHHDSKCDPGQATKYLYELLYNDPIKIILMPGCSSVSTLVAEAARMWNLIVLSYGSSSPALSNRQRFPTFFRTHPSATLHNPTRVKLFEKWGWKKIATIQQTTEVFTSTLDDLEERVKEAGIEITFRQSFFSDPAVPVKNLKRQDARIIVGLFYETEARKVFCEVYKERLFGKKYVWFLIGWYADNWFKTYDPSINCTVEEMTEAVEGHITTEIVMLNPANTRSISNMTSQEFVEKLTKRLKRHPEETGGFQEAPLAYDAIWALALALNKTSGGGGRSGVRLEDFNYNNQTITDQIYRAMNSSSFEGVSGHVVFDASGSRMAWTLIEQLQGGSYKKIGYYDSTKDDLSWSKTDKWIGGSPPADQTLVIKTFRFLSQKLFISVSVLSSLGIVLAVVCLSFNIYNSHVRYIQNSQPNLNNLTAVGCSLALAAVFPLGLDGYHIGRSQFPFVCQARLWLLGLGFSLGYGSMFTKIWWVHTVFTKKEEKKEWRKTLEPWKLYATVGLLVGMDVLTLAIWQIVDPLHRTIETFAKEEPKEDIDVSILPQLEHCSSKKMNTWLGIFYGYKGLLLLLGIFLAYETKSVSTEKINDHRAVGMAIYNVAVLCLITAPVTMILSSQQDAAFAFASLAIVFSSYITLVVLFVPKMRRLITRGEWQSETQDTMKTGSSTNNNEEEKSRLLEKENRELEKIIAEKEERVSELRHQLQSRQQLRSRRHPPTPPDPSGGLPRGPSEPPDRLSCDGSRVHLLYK
GABA-B receptor, sequence (O88871 41-940): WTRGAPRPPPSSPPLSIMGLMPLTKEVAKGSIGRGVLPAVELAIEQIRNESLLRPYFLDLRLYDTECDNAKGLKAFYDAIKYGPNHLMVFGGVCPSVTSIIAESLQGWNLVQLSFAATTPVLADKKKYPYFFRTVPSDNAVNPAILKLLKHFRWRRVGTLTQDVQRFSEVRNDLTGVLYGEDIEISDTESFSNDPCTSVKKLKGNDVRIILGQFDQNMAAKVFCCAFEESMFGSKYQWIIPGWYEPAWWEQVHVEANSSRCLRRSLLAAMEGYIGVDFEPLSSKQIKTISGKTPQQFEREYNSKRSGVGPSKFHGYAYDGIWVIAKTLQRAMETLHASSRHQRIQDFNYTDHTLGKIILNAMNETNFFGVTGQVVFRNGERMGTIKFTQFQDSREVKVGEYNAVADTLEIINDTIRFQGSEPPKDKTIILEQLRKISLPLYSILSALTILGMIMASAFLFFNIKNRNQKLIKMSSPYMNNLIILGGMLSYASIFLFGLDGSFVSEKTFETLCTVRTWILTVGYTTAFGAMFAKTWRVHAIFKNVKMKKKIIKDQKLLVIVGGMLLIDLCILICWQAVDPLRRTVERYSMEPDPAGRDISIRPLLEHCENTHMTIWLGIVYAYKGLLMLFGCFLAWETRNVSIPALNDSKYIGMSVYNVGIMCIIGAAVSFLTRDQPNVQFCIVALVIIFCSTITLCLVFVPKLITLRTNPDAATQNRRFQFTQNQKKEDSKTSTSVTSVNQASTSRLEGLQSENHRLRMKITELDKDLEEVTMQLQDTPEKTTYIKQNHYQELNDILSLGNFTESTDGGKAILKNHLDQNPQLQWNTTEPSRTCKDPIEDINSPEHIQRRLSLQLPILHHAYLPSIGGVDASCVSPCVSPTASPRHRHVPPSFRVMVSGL

| EC50 [µM] | Structure (SMILES) |
| --- | --- |
| > 10 | Cc1cc(N2CC3(CCOCC3)C2)n2nc(C(C)c3ccc(Cl)cn3)cc2n1 (stereo not drawn) [Example 9-9, 2-[1-(5-chloropyridin-2-yl)ethyl]-5-methyl-7-(7-oxa-2-azaspiro[3.5]non-2-yl)pyrazolo[1,5-a]pyrimidine] |
| > 10 | CC(=O)N[C@@H]1CCN(c2cc(C)nc3cc(C(C)c4ccc(Cl)cn4)nn23)C1 (stereo partly drawn) [Example 9-10, N-[(3R)-1-{2-[1-(5-chloropyridin-2-yl)ethyl]-5-methylpyrazolo[1,5-a]pyrimidin-7-yl}pyrrolidin-3-yl]acetamide] |
| > 10 | CC(=O)N[C@H]1CCN(c2cc(C)nc3cc(C(C)c4ccc(Cl)cn4)nn23)C1 (stereo partly drawn) [Example 9-11, N-[(3S)-1-{2-[1-(5-chloropyridin-2-yl)ethyl]-5-methylpyrazolo[1,5-a]pyrimidin-7-yl}pyrrolidin-3-yl]acetamide] |
| > 10 | Cc1cc(N2CC[C@@H](NS(C)(=O)=O)C2)n2nc(Cc3ccc(Cl)cc3)cc2n1 [Example 10-1, N-{(3R)-1-[2-(4-chlorobenzyl)-5-methylpyrazolo[1,5-a]pyrimidin-7-yl]pyrrolidin-3-yl}methanesulfonamide] |
| 3.51 | Cc1cc(N2CCC[C@H](NS(C)(=O)=O)C2)n2nc(Cc3ccc(Cl)cc3)cc2n1 [Example 11-1] |
| 5.67 | Cc1cc(N2CCCCC2CCO)n2nc(Cc3cccc(Cl)c3)cc2n1 (stereo not drawn) [Example 12-1, 2-{1-[2-(3-chlorobenzyl)-5-methylpyrazolo[1,5-a]pyrimidin-7-yl]piperidin-2-yl}ethanol] |

More lines, now with the values behind:

| Structure (SMILES) | EC50 [µM] |
| --- | --- |
| Cc1cc(N2CCC(C(N)=O)C2)n2nc(C(C)c3ccc(C(F)(F)F)cc3)cc2n1 (stereo not drawn) [Example 8-22, 1-(5-methyl-2-{1-[4-(trifluoromethyl)phenyl]ethyl}pyrazolo[1,5-a]pyrimidin-7-yl)pyrrolidine-3-carboxamide] | 0.771 |
| Cc1cc(N2CCCC(CO)C2)n2nc(C(C)c3ccc(Cl)cn3)cc2n1 (stereo not drawn) [Example 9-1, (1-{2-[1-(5-chloropyridin-2-yl)ethyl]-5-methylpyrazolo[1,5-a]pyrimidin-7-yl}piperidin-3-yl)methanol] | 1.54 |
| Cc1cc(NC2CC(F)(F)C2)n2nc(C(C)c3ccc(Cl)cn3)cc2n1 (stereo not drawn) [Example 9-2, 2-[1-(5-chloropyridin-2-yl)ethyl]-N-(3,3-difluorocyclobutyl)-5-methylpyrazolo[1,5-a]pyrimidin-7-amine] | 1.6 |
| Cc1cc(N2CCC[C@H](O)C2)n2nc(C(C)c3ccc(Cl)cn3)cc2n1 (stereo partly drawn) [Example 9-3, (3S)-1-{2-[1-(5-chloropyridin-2-yl)ethyl]-5-methylpyrazolo[1,5-a]pyrimidin-7-yl}piperidin-3-ol] | 2.02 |
| Cc1cc(N2CCCC(F)(F)C2)n2nc(C(C)c3ccc(Cl)cn3)cc2n1 (stereo not drawn) [Example 9-4, 2-[1-(5-chloropyridin-2-yl)ethyl]-7-(3,3-difluoropiperidin-1-yl)-5-methylpyrazolo[1,5-a]pyrimidine] | 0.628 |
| Cc1cc(N2CCC(F)(F)C2)n2nc(C(C)c3ccc(Cl)cn3)cc2n1 (stereo not drawn) [Example 9-5, 2-[1-(5-chloropyridin-2-yl)ethyl]-7-(3,3-difluoropyrrolidin-1-yl)-5-methylpyrazolo[1,5-a]pyrimidine] | 1.66 |
| Cc1cc(NC(C)(C)C)n2nc(C(C)c3ccc(Cl)cn3)cc2n1 (stereo not drawn) [Example 9-6, N-tert-butyl-2-[1-(5-chloropyridin-2-yl)ethyl]-5-methylpyrazolo[1,5-a]pyrimidin-7-amine] | 0.798 |
| Cc1cc(NC2(C)CC2)n2nc(C(C)c3ccc(Cl)cn3)cc2n1 (stereo not drawn) [Example 9-7, 2-[1-(5-chloropyridin-2-yl)ethyl]-5-methyl-N-(1-methylcyclopropyl)pyrazolo[1,5-a]pyrimidin-7-amine] | 1.32 |
| Cc1cc(NC2CC(F)C2)n2nc(C(C)c3ccc(Cl)cn3)cc2n1 (stereo not drawn) [Example 9-8, 2-[1-(5-chloropyridin-2-yl)ethyl]-N-(3-fluorocyclobutyl)-5-methylpyrazolo[1,5-a]pyrimidin-7-amine] | 9.3 |
